ChEMBL document CHEMBL1159174, “Spiroketal glycomimetics: the synthesis of a conformationally restrained Sialyl Lewis X mimic” (Bioorg Med Chem Lett, 1995)

Legend:
[1] = target: T1, E-selectin (Homo sapiens) (UniProt P16581); test: Ability to inhibit the binding to Selectin E immobilized on SPA beads of radiolabeled HL-60 cell membrane was determined at concentration of 10 mM; type: cell membranes
T1 sequence (whole entry): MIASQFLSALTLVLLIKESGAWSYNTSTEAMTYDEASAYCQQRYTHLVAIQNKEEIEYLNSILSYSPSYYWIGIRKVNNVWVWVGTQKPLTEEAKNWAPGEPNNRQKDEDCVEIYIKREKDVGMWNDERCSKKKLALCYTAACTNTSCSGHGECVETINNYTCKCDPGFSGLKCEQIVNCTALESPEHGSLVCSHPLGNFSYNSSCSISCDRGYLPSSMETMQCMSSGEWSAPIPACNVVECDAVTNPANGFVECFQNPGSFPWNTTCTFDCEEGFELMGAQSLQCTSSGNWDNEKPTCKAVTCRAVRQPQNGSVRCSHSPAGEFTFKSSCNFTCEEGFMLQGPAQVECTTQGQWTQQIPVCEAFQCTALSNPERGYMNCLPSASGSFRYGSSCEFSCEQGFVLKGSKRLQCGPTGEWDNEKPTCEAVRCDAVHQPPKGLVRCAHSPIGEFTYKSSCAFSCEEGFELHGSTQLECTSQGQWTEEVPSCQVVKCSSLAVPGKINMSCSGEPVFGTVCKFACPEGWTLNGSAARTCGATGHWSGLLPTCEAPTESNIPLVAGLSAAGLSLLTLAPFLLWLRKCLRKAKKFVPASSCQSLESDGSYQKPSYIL

E-selectin [2] = target: T2, E-selectin (Homo sapiens, UniProt P16581); test: Ability to inhibit the binding to Selectin E immobilized on SPA beads of radiolabeled HL-60 cell membrane was determined; type: cell membranes
T2 sequence (P16581 whole entry): T1 sequence (whole entry)

E-selectin [3] = target: T2, E-selectin; test: Affinity of compound to Selectin E was determined

inhibition [1] [%] | IC50 (E-selectin [2]) [µM] | Kd (E-selectin [3]) [µM] | Structure (SMILES)
35 | – | – | CC(=O)NC1C(O)CC(OC2CCO[C@]3(CCC(OC4OC(C)C(O)C(O)C4O)CO3)C2)(C(=O)O)OC1[C@H](O)[C@H](O)CO (stereo partly drawn)
– | 300 | 1000 | CC(=O)N[C@H]1[C@H]([C@H](O)[C@H](O)CO)O[C@@](O[C@H]2[C@@H](O)[C@@H](CO)O[C@@H](O[C@@H]([C@H](O[C@@H]3O[C@@H](C)[C@@H](O)[C@@H](O)[C@@H]3O)[C@H](C=O)NC(C)=O)[C@H](O)CO)[C@@H]2O)(C(=O)O)C[C@@H]1O [SIALYL LEWIS X]
